Measured values published in patent publication US9662323B2, “Compounds having muscarinic receptor antagonist and beta2 adrenergic receptor agonist activity” (CHIESI FARMACEUTICI S.p.A., priority 2015, dated 2017).
Where two headings read alike, the source gives them in different places.

Key:
[1] = target: T1, Human M3 receptor (Homo sapiens, UniProt P20309); assay: M3 Receptor Radioligand Binding Assay
T1 construct: purchased Perkin Elmer
How it was run: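 Radioligand binding with 0.5% (v/v) final DMSO, incubated 2 h at room temperature with shaking. Membranes were collected on GF/C filters pre-treated with 0.5% polyethyleneimine, washed four times with assay buffer, and counted by scintillation.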

[2] = target: T2, Human β2 adrenoceptor (Homo sapiens, UniProt P07550); assay: β2 Adrenoceptor Radioligand Binding Assay
T2 construct: purchased Perkin Elmer
How it was run: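 Membranes were incubated 1 h at room temperature in 25 mM HEPES, 0.5% BSA, 1 mM EDTA, 0.02% ascorbic acid, pH 7.4, with 0.5% DMSO final. Bound radioligand was collected by GF/C filtration and counted by scintillation. IC50 values from competition curves were converted to Ki by Cheng–Prusoff.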

[3] = human M3 receptor membranes, [3H]-N-methyl scopolamine, read-out: M3 binding affinity (Ki class)
[4] = human β2 adrenoceptor membranes, 125-I Cyanopindolol, read-out: B2 binding affinity (Ki class)

T1 sequence (P20309 whole entry): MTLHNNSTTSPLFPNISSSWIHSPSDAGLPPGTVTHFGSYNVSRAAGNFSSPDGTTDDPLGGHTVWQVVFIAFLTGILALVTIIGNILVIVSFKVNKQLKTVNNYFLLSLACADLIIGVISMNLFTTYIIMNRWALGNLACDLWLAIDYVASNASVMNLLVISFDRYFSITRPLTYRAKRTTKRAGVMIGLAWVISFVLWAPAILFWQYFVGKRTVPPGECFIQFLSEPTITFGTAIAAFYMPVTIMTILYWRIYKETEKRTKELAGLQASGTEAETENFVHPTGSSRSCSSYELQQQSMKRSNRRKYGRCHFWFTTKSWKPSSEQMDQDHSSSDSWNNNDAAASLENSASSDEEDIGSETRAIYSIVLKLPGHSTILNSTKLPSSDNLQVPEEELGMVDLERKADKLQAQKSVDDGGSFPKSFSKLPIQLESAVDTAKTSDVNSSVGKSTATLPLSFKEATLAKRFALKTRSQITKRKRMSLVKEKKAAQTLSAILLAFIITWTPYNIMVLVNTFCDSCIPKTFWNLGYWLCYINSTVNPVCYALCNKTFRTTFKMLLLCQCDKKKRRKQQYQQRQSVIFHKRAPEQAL
T2 sequence (P07550 whole entry): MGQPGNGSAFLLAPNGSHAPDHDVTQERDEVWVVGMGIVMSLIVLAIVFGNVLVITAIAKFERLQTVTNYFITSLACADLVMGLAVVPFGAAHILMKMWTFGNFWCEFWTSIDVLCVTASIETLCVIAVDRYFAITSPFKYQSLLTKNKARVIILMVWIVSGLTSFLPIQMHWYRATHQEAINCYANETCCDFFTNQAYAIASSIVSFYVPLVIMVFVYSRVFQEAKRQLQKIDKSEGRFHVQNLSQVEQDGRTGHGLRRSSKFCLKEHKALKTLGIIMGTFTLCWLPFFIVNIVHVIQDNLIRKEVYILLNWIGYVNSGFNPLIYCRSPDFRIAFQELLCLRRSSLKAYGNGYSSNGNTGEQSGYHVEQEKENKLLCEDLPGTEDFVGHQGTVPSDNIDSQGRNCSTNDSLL

Row | Structure (SMILES) | Ki [1, 3] | Ki [2, 4] | Ki [1] | Ki [2]
1 | O=C(Cc1ccc(OCCCCCNC[C@H](O)c2ccc(O)c3[nH]c(=O)ccc23)c(-c2ccccc2)c1)N1CCC(C(=O)O[C@H]2CN3CCC2CC3)(c2ccccc2)CC1 [Compound 15, (R)-Quinuclidin-3-yl 1-(2-(6-((5-(((R)-2-hydroxy-2-(8-hydroxy-2-oxo-1,2-dihydroquinolin-5-yl)ethyl)amino)pentyl)oxy)-[1,1′-biphenyl]-3-yl)acetyl)-4-phenylpiperidine-4-carboxylate] | > 10 nM | < 1 nM | – | –
2 | O=C(c1ccc(OCCCCCNC[C@H](O)c2ccc(O)c3[nH]c(=O)ccc23)cc1)N1CC(C(=O)O[C@H]2CN3CCC2CC3)(c2ccccc2)C1 [Compound 1A, (R)-Quinuclidin-3-yl 1-(4-((5-(((R)-2-hydroxy-2-(8-hydroxy-2-oxo-1,2-dihydroquinolin-5-yl)ethyl)amino)pentyl)oxy)benzoyl)-3-phenylazetidine-3-carboxylate] | 1 to 10 nM | < 1 nM | – | –
3 | O=C(c1ccc(CN(Cc2ccc(CNC[C@H](O)c3ccc(O)c4[nH]c(=O)ccc34)cc2)C(=O)c2ccccc2)cc1)N1CCC(C(=O)O[C@H]2CN3CCC2CC3)(c2ccccc2)CC1 [Compound 59, (R)-Quinuclidin-3-yl 1-(4-((N-(4-((((R)-2-hydroxy-2-(8-hydroxy-2-oxo-1,2-dihydroquinolin-5-yl)ethyl)amino)methyl)benzyl)benzamido)methyl)benzoyl)-4-phenylpiperidine-4-carboxylate] | – | – | < 1 nM | > 10 nM
4 | CCN(CCCNC[C@H](O)c1ccc(O)c2[nH]c(=O)ccc12)C(=O)c1ccc(C(=O)N2CCC(C(=O)O[C@H]3CN4CCC3CC4)(c3ccccc3)CC2)cc1 [Compound 25, (R)-Quinuclidin-3-yl 1-(4-(ethyl(3-(((R)-2-hydroxy-2-(8-hydroxy-2-oxo-1,2-dihydroquinolin-5-yl)ethyl)amino)propyl)carbamoyl)benzoyl)-4-phenylpiperidine-4-carboxylate] | 1 to 10 nM | 1 to 10 nM | – | –
5 | O=C(c1ccc(OCCCCCNC[C@H](O)c2ccc(O)c3[nH]c(=O)ccc23)cc1)N1CCC(C(=O)O[C@H]2CN3CCC2CC3)(c2ccccc2)CC1 [Compound 1, (R)-Quinuclidin-3-yl 1-(4-((5-(((R)-2-hydroxy-2-(8-hydroxy-2-oxo-1,2-dihydroquinolin-5-yl)ethyl)amino)pentyl)oxy)benzoyl)-4-phenylpiperidine-4-carboxylate] | < 1 nM | < 1 nM | – | –
6 | O=C(c1cccc(OCCCCCNC[C@H](O)c2ccc(O)c3[nH]c(=O)ccc23)c1)N1CCC(C(=O)O[C@H]2CN3CCC2CC3)(c2ccccc2)CC1 [Compound 2, (R)-Quinuclidin-3-yl 1-(3-((5-(((R)-2-hydroxy-2-(8-hydroxy-2-oxo-1,2-dihydroquinolin-5-yl)ethyl)amino)pentyl)oxy)benzoyl)-4-phenylpiperidine-4-carboxylate] | 1 to 10 nM | < 1 nM | – | –
7 | O=C(NCCCCNC[C@H](O)c1ccc(O)c2[nH]c(=O)ccc12)c1ccc(C(=O)N2CC(C(=O)O[C@H]3CN4CCC3CC4)(c3ccccc3)C2)cc1 [Compound 10A, (R)-Quinuclidin-3-yl 1-(4-((4-(((R)-2-hydroxy-2-(8-hydroxy-2-oxo-1,2-dihydroquinolin-5-yl)ethyl)amino)butyl)carbamoyl)benzoyl)-3-phenylazetidine-3-carboxylate] | 1 to 10 nM | < 1 nM | – | –
8 | O=C(Cc1ccc(CC(=O)N(CCCNC[C@H](O)c2ccc(O)c3[nH]c(=O)ccc23)Cc2ccccc2F)cc1)N1CCC(C(=O)O[C@H]2CN3CCC2CC3)(c2ccccc2)CC1 [Compound 45, (R)-Quinuclidin-3-yl 1-(2-(4-(2-((2-fluorobenzyl)(3-(((R)-2-hydroxy-2-(8-hydroxy-2-oxo-1,2-dihydroquinolin-5-yl)ethyl)amino)propyl)amino)-2-oxoethyl)phenyl)acetyl)-4-phenylpiperidine-4-carboxylate] | < 1 nM | < 1 nM | – | –
9 | O=C(CCc1ccc(OCCCCCNC[C@H](O)c2ccc(O)c3[nH]c(=O)ccc23)cc1)N1CCC(C(=O)O[C@H]2CN3CCC2CC3)(c2ccccc2)CC1 [Compound 7, (R)-Quinuclidin-3-yl 1-(3-(4-((5-(((R)-2-hydroxy-2-(8-hydroxy-2-oxo-1,2-dihydroquinolin-5-yl)ethyl)amino)pentyl)oxy)phenyl)propanoyl)-4-phenylpiperidine-4-carboxylate] | < 1 nM | < 1 nM | – | –
